From patent US8466157B2, “Proteasome inhibitors having chymotrypsin-like activity” (University of South Florida, priority 2009, dated 2013)
Several values for one entry are separate records, joined by “and”; a condition that tells them apart may be missing. Identical values can stand only once. Like-named read-outs stand apart in the source and are kept apart here.

What was measured:
[1] = molecular target: T1, chymotrypsin-like activity of the purified rabbit 20S proteasome (Oryctolagus cuniculus, UniProt G1T4Q9); assay: 20S proteasome inhibition assay, fluorogenic substrate Suc-Leu-Leu-Val-Tyr-AMC; type: biochemical; settings: for proteasome inhibitory activity, SAR statement in words: chymotrypsin-like activity, compared with lead or analogue; for decrease of proteasome inhibition activity: 14u, 14v vs linear-chain analogues, 14q vs lead compound 10a;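 for all read-outs here: enzyme and 20 µM substrate incubated 1 h at 37 °C in Tris-HCl buffer pH 7.6, fluorogenic read-out, inhibition calculated against vehicle control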
T1 sequence (G1T4Q9 1-263): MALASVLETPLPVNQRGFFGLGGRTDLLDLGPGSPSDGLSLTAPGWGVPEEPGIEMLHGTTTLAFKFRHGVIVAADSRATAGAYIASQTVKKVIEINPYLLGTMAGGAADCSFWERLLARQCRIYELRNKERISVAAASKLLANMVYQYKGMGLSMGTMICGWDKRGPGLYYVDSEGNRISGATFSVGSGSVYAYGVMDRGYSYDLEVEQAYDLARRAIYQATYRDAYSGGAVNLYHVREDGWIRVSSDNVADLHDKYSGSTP

[2] = molecular target: T2, CT-L (Homo sapiens, UniProt P28074); assay: Inhibition of CT-L in cell culture; type: cell-based
T2 construct: endogenous in cells
T2 sequence (P28074 60-263): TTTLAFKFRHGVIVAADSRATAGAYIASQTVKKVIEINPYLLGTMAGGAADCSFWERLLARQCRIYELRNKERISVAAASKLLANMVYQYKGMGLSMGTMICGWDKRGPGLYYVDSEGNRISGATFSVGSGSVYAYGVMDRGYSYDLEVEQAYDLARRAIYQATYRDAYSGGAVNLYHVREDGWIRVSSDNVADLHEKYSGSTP

[3] = test system: human tumor cell lines (breast, pancreatic and ovarian); assay: Selective inhibition of human tumor cell lines over normal cells; type: cell-based; settings: three human tumor cell lines (breast, pancreatic, ovarian) over normal cells
[4] = individual determinations (runs M-1096, M-1098, M-1099, AK or dated), read-out: Chymotrypsin-like Activity IC50
[5] = mean of the individual determinations, read-out: Chymotrypsin-like Activity IC50 (μM), mean ± spread (n)
[6] = read-out: IC50 (μM)* In Cell culture against CT-L
[7] = 30 μM, runs M-1096, M-1098, M-1099

Row | IC50 [1, 4] | IC50 [1, 5] [µM] | IC50 [2, 6] | melting point | Molecule | also measured
1 | 2.28 µM and 2.12 µM and 2.4 µM | 2.27 | 8.9 µM and 6.9 µM | – | O=C(O)CSC1=CC(=NS(=O)(=O)c2cccs2)c2ccccc2C1=O (stereo in doubt) [YG2-176, (Z)-2-(1-oxo-4-(thiophen-2-ylsulfonylimino)-1,4-dihydronaphthalen-2-ylthio)acetic acid] | proteasome inhibitory activity, SAR statement in words [1]: comparable inhibitory potency
2 | – | – | – | 140 to 142 °C | COC(=O)CCSC1=C/C(=N\S(=O)(=O)c2cccs2)c2ccccc2C1=O [8b, Methyl 3-(1-oxo-4-(thiophen-2-ylsulfonylimino)-1,4-dihydronaphthalen-2-ylthio) propanoate] | –
3 | – | – | – | 117 to 119 °C | COC(=O)CCSc1cc(NS(=O)(=O)c2cccs2)c2ccccc2c1O [9b, Methyl 3-(1-hydroxy-4-(thiophene-2-sulfonamido)naphthalen-2-ylthio)propanoate] | –
4 | – | – | – | 166 to 168 °C | CCOC(=O)CSc1cc(NS(=O)(=O)c2ccc(-c3ccccc3)cc2)c2ccccc2c1O [14r, Ethyl 2-(4-(biphenyl-4-ylsulfonamido)-1-hydroxynaphthalen-2-ylthio)acetate] | –
5 | 1.05 µM and 2.4 µM and 2.67 µM | – | 25 µM and 17.4 µM | – | O=C(O)CSc1cc(NS(=O)(=O)c2cc(Cl)c(Cl)s2)c2ccccc2c1O [HL4-098-2, 2-(4-(4,5-dichlorothiophene-2-sulfonamido)-1-hydroxynaphthalen-2-ylthio)acetic acid] | –
6 | – | 2.2 | 8.9 µM | – | O=C(O)CSc1cc(NS(=O)(=O)c2cccs2)c2ccccc2c1O [HLM008182, 2-(1-hydroxy-4-(thiophene-2-sulfonamido)naphthalen-2-ylthio)acetic acid] | proteasome inhibitory activity, SAR statement in words [1]: comparable proteasome inhibition activity; IC50 ([1]; sample kept r.t. 2 weeks in DMSO, read-out: Chymotrypsin-like Activity IC50 (μM), r.t. 2 weeks in DMSO (converted)): 2.76 µM and 1.64 µM; IC50 ([2]; listed as YG1-066, read-out: IC50 (μM)* In Cell culture against CT-L): 7.3 µM
7 | 2.1 µM and 1.4 µM and 2.5 µM and 0.9 µM | 1.73 | 4.3 µM and 3.7 µM | – | O=C1C(Cl)=C(Nc2ccc(S(=O)(=O)Nc3ccccn3)cc2)C(=O)c2ccccc21 [PI-083, reference compound] | Chymotrypsin-like Activity Inhibition at 30 μM [1, 7]: 86% and 83%; inhibition at 30 µM [1, 7]: 87%; selective inhibition of tumor cell lines over normal cells [3]: selective inhibition
8 | 26 µM and > 100 µM and 28 µM | – | – | 134 to 136 °C | O=S(=O)(Nc1cc(I)c(O)c2ccccc12)c1cccs1 [YG1-033, N-(3-iodo-4-hydroxynaphthalen-1-yl)thiophene-2-sulfonamide] | –
9 | 1.04 µM and 1.86 µM and 2.06 µM and 2.35 µM and 3.8 µM | 2.22 | – | 93 to 95 °C | CCOC(=O)CSC1=C/C(=N\S(=O)(=O)c2ccccc2)c2ccccc2C1=O [YG1-110, Ethyl 2-(1-oxo-4-(phenylsulfonylimino)-1,4-dihydronaphthalen-2-ylthio)acetate] | –
10 | 1.74 µM and 7 µM and 8.7 µM and 2.75 µM and 6.4 µM | – | – | 118 to 120 °C | CCOC(=O)CSc1cc(NS(=O)(=O)c2ccccc2)c2ccccc2c1O [YG1-113, Ethyl 2-(1-hydroxy-4-(phenylsulfonamido)naphthalen-2-ylthio)acetate] | proteasome inhibitory activity, SAR statement in words [1]: reduced compared to acid analogues
11 | 7.4 µM | – | – | 185 °C (dec.) | O=C(O)CCSc1cc(NS(=O)(=O)c2cccs2)c2ccccc2c1O [YG1-116, 3-(1-hydroxy-4-(thiophene-2-sulfonamido)naphthalen-2-ylthio)propanoic acid] | proteasome inhibitory activity, SAR statement in words [1]: the inhibitory activity diminished
12 | > 10 µM | – | – | 195 °C (dec.) | O=C1C(N2CCOCC2)=C/C(=N\S(=O)(=O)c2cccs2)c2ccccc21 [YG1-129, N-(3-morpholino-4-oxonaphthalen-1(4H)-ylidene)thiophene-2-sulfonamide] | –
13 | 0.81 µM and 2.48 µM and 2.28 µM and 1.74 µM and 2.2 µM | – | > 100 µM and 83 µM | – | O=C(O)CSc1cc(NS(=O)(=O)c2ccc(-c3ccccc3)cc2)c2ccccc2c1O [YG1-152, 2-(4-(biphenyl-4-ylsulfonamido)-1-hydroxynaphthalen-2-ylthio)acetic acid] | IC50 ([1]; value quoted in running text / FIG. 11, read-out: IC50 against chymotrypsin-like proteasome activity): 1.9 µM
14 | 0.73 µM and 2.42 µM and 2.7 µM and 2.3 µM and 2.2 µM | 2.07 | 8 µM and 10 µM | – | O=C(O)CSc1cc(NS(=O)(=O)c2ccc(Cl)s2)c2ccccc2c1O [YG1-153, 2-(4-(5-chlorothiophene-2-sulfonamido)-1-hydroxynaphthalen-2-ylthio)acetic acid] | –
15 | 1.34 µM and 4.38 µM and 3.85 µM and 2.1 µM and 2.09 µM | 2.75 | – | 197 °C (dec.) | O=C1C(Sc2ncn[nH]2)=C/C(=N\S(=O)(=O)c2cccs2)c2ccccc21 [YG1-158-2, N-(3-(1H-1,2,4-triazol-5-ylthio)-4-oxonaphthalen-1(4H)-ylidene)thiophene-2-sulfonamide] | –
16 | 2.11 µM and 6.45 µM and 6.6 µM and 6.55 µM and 1.54 µM and 2.18 µM | – | 6.4 µM | – | Cn1nnnc1Sc1cc(NS(=O)(=O)c2cccs2)c2ccccc2c1O [YG1-159-1, N-(4-hydroxy-3-(1-methyl-1H-tetrazol-5-ylthio)naphthalen-1-yl)thiophene-2-sulfonamide] | proteasome inhibitory activity, SAR statement in words [1]: comparable inhibition potency
17 | 2.32 µM and 2.44 µM and 1.84 µM | – | – | 205 °C (dec.) | O=C(O)c1ccccc1Sc1cc(NS(=O)(=O)c2ccc(-c3ccccc3)cc2)c2ccccc2c1O [YG1-168, 2-(4-(biphenyl-4-ylsulfonamido)-1-hydroxynaphthalen-2-ylthio)benzoic acid] | –
18 | 9.5 µM and > 10 µM and 8 µM | – | – | 177 to 179 °C | CC(Sc1cc(NS(=O)(=O)c2ccc(Cl)cc2)c2ccccc2c1O)C(=O)O (stereo not shown) [YG2-024-1, 2-(4-(4-chlorophenylsulfonamido)-1-hydroxynaphthalen-2-ylthio)propanoic acid] | decrease of proteasome inhibition activity [1]: ~2 fold
19 | 9.6 µM and 8.45 µM | – | – | 176 to 178 °C | CC(Sc1cc(NS(=O)(=O)c2ccc3ccccc3c2)c2ccccc2c1O)C(=O)O (stereo not shown) [YG2-024-2, 2-(1-hydroxy-4-(naphthalene-2-sulfonamido)naphthalen-2-ylthio)propanoic acid] | decrease of proteasome inhibition activity [1]: ~2 fold
20 | > 10 µM and 4 µM and 5.9 µM | – | – | 185 to 187 °C | O=C(O)CSc1cc(NS(=O)(=O)c2ccc3ccccc3c2)c2ccccc2c1O [YG2-034-2, 2-(1-hydroxy-4-(naphthalene-2-sulfonamido)naphthalen-2-ylthio)acetic acid] | decrease of proteasome inhibition activity [1]: 3 fold
21 | > 10 µM | – | – | 120 to 122 °C | CC(C)(C)OC(=O)COC1=CC(=O)c2ccccc2C1=O [YL2-013, tert-Butyl 2-(1,4-dioxo-1,4-dihydronaphthalen-2-yloxy)acetate] | –
22 | > 10 µM | – | – | – | O=C(O)COc1cc(NS(=O)(=O)c2cccs2)c2ccccc2c1O [YL2-030, 2-(1-hydroxy-4-(thiophene-2-sulfonamido)naphthalen-2-yloxy)acetic acid] | proteasome inhibitory activity, SAR statement in words [1]: diminished the inhibitory activity
23 | 2.46 µM and 7.24 µM and 7.9 µM and 9.8 µM and > 10 µM and 1.24 µM and 1.81 µM | 5.08 | – | – | N-(3-(1-methyl-1H-tetrazol-5-ylthio)-4-oxonaphthalen-1(4H)-ylidene)thiophene-2-sulfonamide [YG1-158-1] | –
24 | > 10 µM | – | – | – | N-(3-(ethylthio)-4-hydroxynaphthalen-1-yl)thiophene-2-sulfonamide [YG2-087-1] | –

Row | Molecule | IC50 [1, 4] | IC50 [1, 5] [µM] | IC50 [2, 6] | melting point | also measured
25 | O=C(O)c1ccccc1Sc1cc(NS(=O)(=O)c2cccs2)c2ccccc2c1O [YG1-155, 2-(1-hydroxy-4-(thiophene-2-sulfonamido)naphthalen-2-ylthio)benzoic acid] | 1.12 µM and 4.6 µM and 5.32 µM and 7.7 µM and 7.1 µM and 1.04 µM and 1.5 µM | 4.05 | – | 215 °C (dec.) | –
26 | O=S(=O)(Nc1cc(Sc2ncn[nH]2)c(O)c2ccccc12)c1cccs1 [YG1-159-2, N-(3-(1H-1,2,4-triazol-5-ylthio)-4-hydroxynaphthalen-1-yl)thiophene-2-sulfonamide] | 1.4 µM and 6.55 µM and 7.4 µM and 5.6 µM and 6.6 µM and 0.85 µM and 1.12 µM | 4.22 | 4.8 µM and 5.1 µM | – | proteasome inhibitory activity, SAR statement in words [1]: comparable inhibition potency
